Patent publication US8383642B2, “Spiropiperidine compounds” (Eli Lilly and Company, priority 2009, dated 2013)

Key:
Gal4 PPARα = target: T1, Gal4 PPARα (Homo sapiens, UniProt Q07869); assay: Gal4 PPARα reporter functional assay (CTF); assay type: cell-based; details: examined up to 10 μM; CV1 cells; luciferase
T1 construct: expressed in transfected cells; host or cells: CV1 (African green monkey kidney)
T1 sequence (Q07869 239-466 limits assumed): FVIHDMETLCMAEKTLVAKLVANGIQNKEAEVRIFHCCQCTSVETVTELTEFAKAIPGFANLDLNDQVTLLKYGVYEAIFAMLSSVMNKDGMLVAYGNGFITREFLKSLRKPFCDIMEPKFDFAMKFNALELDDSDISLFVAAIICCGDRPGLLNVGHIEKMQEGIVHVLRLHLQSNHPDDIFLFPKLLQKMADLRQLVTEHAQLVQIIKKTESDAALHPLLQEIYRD
Source text: (§1) Gal4 PPARα, Gal4 PPARδ, and PPARγ reporter functional assays are also used to monitor the selectivity of exemplified compounds. CV1 cells, which are derived from the renal tissue of an African green monkey, are transfected with various receptor and reporter plasmids using Fugene. For the Gal4 PPARα and PPARδ assays, a reporter plasmid containing five tandem copies of the yeast transcription protein Gal4 response element, cloned upstream of a firefly luciferase gene driven by the major late promoter of adenovirus, is transfected together with a Simian Virus 40 (SV40) driven plasmid constitutively expressing a hybrid protein containing the Gal4 DNA binding domain (DBD), and either the PPARα or PPARδ ligand binding. For the PPARγ assay, plasmids encoding PPARγ and RXRα, both driven by a cytomegalovirus (CMV) promoter are transfected together with a plasmid containing luciferase reporter cDNA driven by the TK promoter and a receptor response element (2×PPRE). Cells are transfected in T225 cm^2 cell culture flasks in DMEM media with 5% charcoal-stripped FBS. […] After 24 hours incubation with compounds, cells are lysed and luciferase activity is determined as a measure of receptor activation by luminescence. […] The maximum percent stimulation is determined versus maximum stimulation obtained with 10 μM of an appropriate PPAR agonist reference compound. […]

Min6 cells = assay: Glucose Dependent Insulin Secretion (GDIS) assay, insulinoma cell line Min6; assay type: cell-based, mouse; details: 1 μM plus 25 mM glucose compared to 25 mM glucose alone; 2 h
Experimental: Because activation of GPR40 is known to result in insulin secretion which is dependent on high glucose concentrations, two separate assay systems (insulinoma cell line and primary rodent islets) are developed to further characterize compounds that are known to increase intracellular calcium in the GPR40 primary assay discussed above.
GDIS assays are performed using the mouse insulinoma cell line Min6. Min6 cells are maintained in Dulbecco's Modified Eagle's Medium (DMEM) containing non-essential amino acids, 10% FBS, […] 2-mercaptoethanol and 1% penicillin and streptomycin at 37° C. plus 5% CO2. On the day of the experiment, the cells are washed twice with 200 μl of pre-warmed Krebs-ringer buffer without glucose. Addition of 200 μL of pre-warmed Krebs-ringer buffer containing 2.5 mM glucose is used to starve the cells followed by the addition of compounds in the presence of a high concentration of glucose (25 mM). The plate is incubated at 37° C. for 2 hours. At the end of the 2 h incubation, the supernatant is gently transferred into a Millipore filter plate and spun at 200 g (gravitational force) for 3 minutes. Insulin is assayed using a Mercodia Insulin estimation kit.

Male Balb/c mice = assay: Intraperitoneal Glucose Tolerance Test (IPGTT); assay type: in vivo, mouse; details: for glucose levels: positive control 10 mg/kg
Experimental: To examine the ability of exemplified compounds to activate GPR40 in-vivo resulting in anti-diabetic efficacy, i.e. an increase in insulin and reduction in glucose levels, a 4-day intraperitoneal glucose tolerance test (ipGTT) study is completed with each compound.
Male Balb/c (Albino mice) mice (8-9 weeks of age) are single housed and fed with normal rodent chow diet and water ad libitum. Animals are weighed and randomized by body weight and daily body weights are recorded. Upon study initiation, animals are dosed once per day orally for three days using a formulation carrying methylcellulose and tween-80. On the night before the 4-day IPGTT study, animals are fasted overnight in clean cages. On the morning of the IPGTT (Day 4), animals are dosed orally with compound or vehicle alone 60 minutes prior to the IPGTT (glucose 2 g/kg, i.p.). Blood glucose levels are determined from tail bleeds taken at 0, 3, 7, 15, 30, and 60 min after glucose challenge. Plasma is isolated and used to estimate respective insulin levels. The blood glucose excursion profile from t=0 to t=60 min is used to integrate an area under the curve (AUC) for each treatment. Percent lowering in glucose is calculated from the AUC data of the compounds with respect to the AUC of vehicle group. The test compound is orally administered at 0.03, 0.1, 0.3, 1.0, or 3.0 mg/kg, and a positive control is administered at 10 mg/kg. […] The ED50 for the compound of Example 1 based on AUCs for glucose lowering is 0.09 mg/kg. […] The results of this assay support the compound's activation of GPR-40, with resulting in vivo anti-diabetic efficacy.

Gal4 PPARδ = target: T2, Gal4 PPARδ (Homo sapiens, UniProt Q03181); assay: Gal4 PPARδ reporter functional assay (CTF); assay type: cell-based; details: examined up to 10 μM; CV1 cells; luciferase
T2 construct: expressed in transfected cells; host or cells: CV1 (African green monkey kidney)
T2 sequence (Q03181 211-439 limits assumed): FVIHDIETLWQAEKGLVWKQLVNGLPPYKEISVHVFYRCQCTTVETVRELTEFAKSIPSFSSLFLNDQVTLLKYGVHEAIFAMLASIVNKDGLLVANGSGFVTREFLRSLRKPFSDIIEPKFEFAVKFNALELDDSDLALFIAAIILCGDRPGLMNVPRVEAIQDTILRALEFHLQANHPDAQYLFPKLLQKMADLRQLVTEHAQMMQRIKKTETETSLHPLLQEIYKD
Source text: as §1

functional activation (Gal4 PPARα): No functional activation | functional activation (Gal4 PPARδ): No functional activation
SMILES: CC#C[C@@H](CC(=O)O)c1ccc(OCc2ccc(CN3CCC4(C=Cc5ccccc54)CC3)cc2)cc1 [Example 1, (3S)-3-(4-{[4-(1′H-Spiro[indene-1,4′-piperidin]-1′-ylmethyl)benzyl]oxy}phenyl)hex-4-ynoic acid]
increase in insulin secretion (Min6 cells): two-fold increase | insulin levels (Male Balb/c mice; 3 minute time point, 1.0 and 3.0 mg/kg oral): significantly elevated | glucose levels (Male Balb/c mice; 3 minute time point, Example 1 0.03-3.0 mg/kg oral): No concentration of the compound of Example 1 or the positive control significantly lowered | glucose levels (Male Balb/c mice; 7 minute time point, Example 1 0.3, 1.0, and 3.0 mg/kg oral): significantly lowered | glucose levels (Male Balb/c mice; 15 minute time point, Example 1 0.1, 0.3, 1.0, and 3.0 mg/kg oral): significantly lowered | glucose levels (Male Balb/c mice; 30 minute time point, all doses of Example 1 (0.03-3.0 mg/kg oral)): significantly lowered | glucose levels (Male Balb/c mice; 60 minute time point, all doses of Example 1 (0.03-3.0 mg/kg oral)): significantly lowered | ED50 (Male Balb/c mice; Mus musculus, oral, once per day, 4-day, glucose 2 g/kg i.p., AUC t=0 to 60 min, read-out: ED50 based on AUCs for glucose lowering): 0.09 mg/kg
